Test results from PubChem BioAssay (NCI).
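Dose response: 5 concentrations. Exposure: 48 h. Format: 96-well plates. Endpoint: linear interpolation; highest concentration if not reached. GI50: concentration for 50% inhibition of growth. The concentration for full growth arrest is given as TGI.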

Legend:
Experiment in all cases: inhibition of tumour cell growth, NCI panel, 48 h
SF-295 CNS = test system: SF-295 CNS
PC-3 prostate = test system: PC-3 prostate
SF-539 CNS = test system: SF-539 CNS
ACHN renal = test system: ACHN renal
NCI-H23 lung = test system: NCI-H23 lung
HCC-2998 colon = test system: HCC-2998 colon
HCT-116 colon = test system: HCT-116 colon
COLO 205 colon = test system: COLO 205 colon
SNB-19 CNS = test system: SNB-19 CNS
OVCAR-5 ovarian = test system: OVCAR-5 ovarian
OVCAR-3 ovarian = test system: OVCAR-3 ovarian
SK-OV-3 ovarian = test system: SK-OV-3 ovarian
UACC-62 melanoma = test system: UACC-62 melanoma
LOX IMVI melanoma = test system: LOX IMVI melanoma
SF-268 CNS = test system: SF-268 CNS
HOP-92 NSCLC = test system: HOP-92 NSCLC
TK-10 renal = test system: TK-10 renal
M14 melanoma = test system: M14 melanoma
KM12 colon = test system: KM12 colon
MDA-MB-231 breast = test system: MDA-MB-231 breast
786-0 renal = test system: 786-0 renal
NCI-H460 lung = test system: NCI-H460 lung
IGROV1 ovarian = test system: IGROV1 ovarian
SN12C renal = test system: SN12C renal
OVCAR-8 ovarian = test system: OVCAR-8 ovarian
OVCAR-4 ovarian = test system: OVCAR-4 ovarian
HT29 colon = test system: HT29 colon
SW-620 colon = test system: SW-620 colon
HS 578T breast = test system: HS 578T breast
DU-145 prostate = test system: DU-145 prostate
SNB-75 CNS = test system: SNB-75 CNS
T-47D breast = test system: T-47D breast
RPMI-8226 leukemia = test system: RPMI-8226 leukemia
NCI-H522 lung = test system: NCI-H522 lung
NCI-H226 lung = test system: NCI-H226 lung
UO-31 renal = test system: UO-31 renal
MCF7 breast = test system: MCF7 breast
SK-MEL-5 melanoma = test system: SK-MEL-5 melanoma
HOP-62 NSCLC = test system: HOP-62 NSCLC
MALME-3M melanoma = test system: MALME-3M melanoma
SK-MEL-28 melanoma = test system: SK-MEL-28 melanoma
A549 NSCLC = test system: A549 NSCLC
HCT-15 colon = test system: HCT-15 colon
UACC-257 melanoma = test system: UACC-257 melanoma
U251 CNS = test system: U251 CNS
CCRF-CEM leukemia = test system: CCRF-CEM leukemia
CAKI-1 renal = test system: CAKI-1 renal
BT-549 breast = test system: BT-549 breast
A498 renal = test system: A498 renal
SK-MEL-2 melanoma = test system: SK-MEL-2 melanoma
MDA-MB-435 = test system: MDA-MB-435
RXF 393 renal = test system: RXF 393 renal
NCI/ADR-RES ovarian = test system: NCI/ADR-RES ovarian

## CCn1cnc(C[C@H](NC(=O)[C@H](CCCCNC(=O)Nc2cc(C(F)(F)F)cc(C(F)(F)F)c2)NC(=O)Nc2cc(C(F)(F)F)cc(C(F)(F)F)c2)C(=O)OC)c1
SF-295 CNS
  GI50: > 10 µM
  TGI: > 10 µM
PC-3 prostate
  GI50: 2.82 µM
  TGI: > 10 µM
SF-539 CNS
  GI50: > 10 µM
  TGI: > 10 µM
ACHN renal
  GI50: 5.61 µM
  TGI: > 10 µM
NCI-H23 lung
  GI50: 5.98 µM
  TGI: > 10 µM
HCC-2998 colon
  GI50: 3.98 µM
  TGI: > 10 µM
HCT-116 colon
  GI50: 3.87 µM
  TGI: > 10 µM
COLO 205 colon
  GI50: > 10 µM
  TGI: > 10 µM
SNB-19 CNS
  GI50: 5.1 µM
  TGI: > 10 µM
OVCAR-5 ovarian
  GI50: > 10 µM
  TGI: > 10 µM
OVCAR-3 ovarian
  GI50: 3.32 µM
  TGI: > 10 µM
SK-OV-3 ovarian
  GI50: > 10 µM
  TGI: > 10 µM
UACC-62 melanoma
  GI50: > 10 µM
  TGI: > 10 µM
LOX IMVI melanoma
  GI50: 3.56 µM
  TGI: > 10 µM
SF-268 CNS
  GI50: 6.04 µM
  TGI: > 10 µM
HOP-92 NSCLC
  GI50: 2.24 µM
  TGI: 9.81 µM
TK-10 renal
  GI50: 7.46 µM
  TGI: > 10 µM
M14 melanoma
  GI50: 6.29 µM
  TGI: > 10 µM
KM12 colon
  GI50: 4.41 µM
  TGI: > 10 µM
MDA-MB-231 breast
  GI50: 2.58 µM
  TGI: 6.37 µM
786-0 renal
  GI50: 8.78 µM
  TGI: > 10 µM
NCI-H460 lung
  GI50: 3.43 µM
  TGI: > 10 µM
IGROV1 ovarian
  GI50: 5.27 µM
  TGI: > 10 µM
SN12C renal
  GI50: 5.69 µM
  TGI: > 10 µM
OVCAR-8 ovarian
  GI50: 5.02 µM
  TGI: > 10 µM
OVCAR-4 ovarian
  GI50: 3.51 µM
  TGI: > 10 µM
HT29 colon
  GI50: 3.97 µM
  TGI: > 10 µM
SW-620 colon
  GI50: 6.86 µM
  TGI: > 10 µM
HS 578T breast
  GI50: 4.49 µM
  TGI: > 10 µM
DU-145 prostate
  GI50: 5.49 µM
  TGI: > 10 µM
SNB-75 CNS
  GI50: 1.37 µM
  TGI: > 10 µM
T-47D breast
  GI50: 4.83 µM
  TGI: > 10 µM
RPMI-8226 leukemia
  GI50: 3.08 µM
  TGI: > 10 µM
NCI-H522 lung
  GI50: 5.19 µM
  TGI: > 10 µM
NCI-H226 lung
  GI50: > 10 µM
  TGI: > 10 µM
UO-31 renal
  GI50: > 10 µM
  TGI: > 10 µM
MCF7 breast
  GI50: 3.51 µM
  TGI: > 10 µM
SK-MEL-5 melanoma
  GI50: 7.75 µM
  TGI: > 10 µM
HOP-62 NSCLC
  GI50: 9.32 µM
  TGI: > 10 µM
MALME-3M melanoma
  GI50: > 10 µM
  TGI: > 10 µM
SK-MEL-28 melanoma
  GI50: 6.62 µM
  TGI: > 10 µM
A549 NSCLC
  GI50: 3.97 µM
  TGI: > 10 µM
HCT-15 colon
  GI50: > 10 µM
  TGI: > 10 µM
UACC-257 melanoma
  GI50: > 10 µM
  TGI: > 10 µM
U251 CNS
  GI50: 3.8 µM
  TGI: > 10 µM
CCRF-CEM leukemia
  GI50: 3.04 µM
  TGI: > 10 µM
CAKI-1 renal
  GI50: > 10 µM
  TGI: > 10 µM
BT-549 breast
  GI50: > 10 µM
  TGI: > 10 µM
A498 renal
  GI50: > 10 µM
  TGI: > 10 µM
SK-MEL-2 melanoma
  GI50: > 10 µM
  TGI: > 10 µM
MDA-MB-435
  GI50: 8.46 µM
  TGI: > 10 µM
RXF 393 renal
  GI50: 4.24 µM
  TGI: > 10 µM
NCI/ADR-RES ovarian
  GI50: > 10 µM
  TGI: > 10 µM
